Counter-ions that a name gives are not always drawn. Like-named read-outs stand apart in the source and are kept apart here.
Columns and labels:
[1] = tested on: region abundant in guanine and cytosine; assay: interaction with DNA region abundant in guanine and cytosine; format: binding
Source text: (§1) The naphthalimidobenzamide derivatives (1) or salts thereof according to the present invention are compounds synthesized to have a high affinity with DNA and base sequence selectivity. As a result of various investigations, it has been confirmed that the compounds of the present invention each has a high affinity with DNA based on the results of various tests including a test using ethidium bromide displacement assay or the like. It has also been confirmed that they have stronger affinities with respective base sequence regions.

KB cells = assay: Cytotoxicity against KB cells (crystal violet dying method); format: cell-based; details: Homo sapiens, read-out: Cytotoxicity [IC50 (μM)]
Protocol: Test 1 Cytotoxicity against KB cells
The residue was re-suspended in an MEM medium containing 10% fetal bovine serum. Then, an equivalent amount of a 0.2% trypan blue solution was added to a portion of the cell suspension, followed by mixing. The number of living cells which had not been dyed with the trypan blue was counted by a hemocytometer and the suspension was diluted and adjusted with the above-described culture medium to give a cell concentration of 1×10^4 cells/ml. Each well of a 96-well plate was inoculated with a 100-μl portion of the resulting suspension, in other words, was inoculated to give a concentration of 1×10^3 cells/well.
To the cells cultured in a CO2 incubator for 24 hours after the inoculation was added 100 μl/well of a medicament solution, followed by culturing for 72 hours. To a control was added 100 μl of an MEM medium.
The cytotoxicity of the medicament was determined from a change in the number of the cells by using the crystal violet dying method.
After washing the plate with water, 100 μl/well of a 0.05% crystal violet solution dissolved in 20% methanol was added to dye the cells therewith for about 15 minutes. The plate was washed to remove the unbound crystal violet, followed by the addition of 100 μl/well of 0.05M NaH2 PO4 /ethanol (1:1 v/v), whereby the crystal violet bound to the cellular protein was extracted.

[2] = tested on: region abundant in adenine and thymine; assay: interaction with DNA region abundant in adenine and thymine; format: binding
Source text: as §1

[3] = tested on: human breast cancer strains MX1; assay: antitumor test in nude mouse subcutaneously transplanted with human breast cancer strains MX1; format: in vivo
[4] = tested on: human pancreatic cancer strains PAN6; assay: antitumor test in nude mouse subcutaneously transplanted with human pancreatic cancer strains PAN6; format: in vivo
[5] = tested on: human gastric cancer strains AZ521; assay: antitumor test in nude mouse subcutaneously transplanted with human gastric cancer strains AZ521; format: in vivo
[6] = tested on: human skin cancer strains LOX; assay: antitumor test in nude mouse subcutaneously transplanted with human skin cancer strains LOX; format: in vivo
[7] = KB cells, 72 hours, 50% proliferation inhibition

Row | Compound | IC50 (KB cells; [7]) [µM] | further results
1 | O=C(NCCNCCN1C(=O)c2cccc3cc([N+](=O)[O-])cc(c23)C1=O)c1cc(C(=O)NCCNCCN2C(=O)c3cccc4cc([N+](=O)[O-])cc(c34)C2=O)cc(N2C(=O)c3cccc4cc([N+](=O)[O-])cc(c34)C2=O)c1 [Example 4, 1,3-bis[N-[2-[[2-(3-nitro-1,8-naphthalimido)ethyl]amino]ethyl]carbamoyl]-5-(3-nitro-1,8-naphthalimido)benzene dihydrochloride] | 0.048 | interaction with a region abundant in guanine and cytosine [1]: strong interaction
2 | Cn1cc(NC(=O)c2cc(NC=O)cn2C)cc1C(=O)NCCNCCNC(=O)c1cc(C(=O)NCCNCCNC(=O)c2cc(NC(=O)c3cc(NC=O)cn3C)cn2C)cc(N2C(=O)c3cccc4cc([N+](=O)[O-])cc(c34)C2=O)c1 [Example 30, 1,3-bis[N-[2-[[2-[4-(4-formamido-1-methylpyrrole-2-carbonylamino)-1-methylpyrrole-2-carbonylamino]ethyl]amino]ethyl]carbamoyl]-5-(3-nitro-1,8-naphthalimido)benzene dihydrochloride] |  | interaction with a region abundant in adenine and thymine [2]: strong interaction
3 | CN(C)CCCNC(=O)c1cc(C(=O)NCCNCCN2C(=O)c3cccc4cc([N+](=O)[O-])cc(c34)C2=O)cc(N2C(=O)c3cccc4cc([N+](=O)[O-])cc(c34)C2=O)c1 [Example 41, 1-[N-(3-dimethylaminopropyl)carbamoyl]-3-(3-nitro-1,8-naphthalimido)-5-[N-[2-[[2-(3-nitro-1,8-naphthalimido)ethyl]amino]ethyl]carbamoyl]benzene hydrochloride] | 3.1 | 
4 | CN(C)CCNC(=O)c1cc(C(=O)NCCNCCN2C(=O)c3cccc4cc([N+](=O)[O-])cc(c34)C2=O)cc(N2C(=O)c3cccc4cc([N+](=O)[O-])cc(c34)C2=O)c1 [Example 42, 1-[N-(2-dimethylaminoethyl)carbamoyl]-3-(3-nitro-1,8-naphthalimido)-5-[N-[2-[[2-(3-nitro-1,8-naphthalimido)ethyl]amino]ethyl]carbamoyl]benzene hydrochloride] | 0.15 | 
5 | CNC(=O)c1cc(C(=O)NCCNCCN2C(=O)c3cccc4cc([N+](=O)[O-])cc(c34)C2=O)cc(N2C(=O)c3cccc4cc([N+](=O)[O-])cc(c34)C2=O)c1 [Example 43, 1-methylcarbamoyl-3-(3-nitro-1,8-naphthalimido)-5-[N-[2-[[2-(3-nitro-1,8-naphthalimido)ethyl]amino]ethyl]carbamoyl]benzene hydrochloride] | 0.025 | 
6 | O=C(NCCNCCN1C(=O)c2cccc3cc([N+](=O)[O-])cc(c23)C1=O)c1cc(C(=O)NCCN2CCCC2)cc(N2C(=O)c3cccc4cc([N+](=O)[O-])cc(c34)C2=O)c1 [Example 45, 1-(3-nitro-1,8-naphthalimido)-3-[N-[2-[[2-(3-nitro-1,8-naphthalimido)ethyl]amino]ethyl]carbamoyl]-5-[N-(2-pyrrolidinoethyl)carbamoyl]benzene hydrochloride] | 0.066 | 
7 | O=C(NCCNCCN1C(=O)c2cccc3cc([N+](=O)[O-])cc(c23)C1=O)c1cc(C(=O)NCCN2CCCCC2)cc(N2C(=O)c3cccc4cc([N+](=O)[O-])cc(c34)C2=O)c1 [Example 46, 1-(3-nitro-1,8-naphthalimido)-3-[N-[2-[[2-(3-nitro-1,8-naphthalimido)ethyl]amino]ethyl]carbamoyl]-5-[N-(2-piperidinoethyl)carbamoyl]benzene hydrochloride] |  | inhibitory effects against tumor proliferation [3]: 71.8%; inhibitory effects against tumor proliferation [4]: 59.8%; inhibitory effects against tumor proliferation [5]: 79.5%; IC50 (KB cells; KB, 72 h): 0.053 µM; inhibitory effects against tumor proliferation [6]: 96.2%
8 | O=C(NCCNCCN1C(=O)c2cccc3cccc(c23)C1=O)c1cc(C(=O)NCCN2CCCCC2)cc(N2C(=O)c3cccc4cc([N+](=O)[O-])cc(c34)C2=O)c1 [Example 47, 1-[N-[2-[[2-(1,8-naphthalimido)ethyl]amino]ethyl]carbamoyl]-3-(3-nitro-1,8-naphthalimido)-5-[N-(2-piperidinoethyl)carbamoyl]benzene hydrochloride] | 0.0035 | 
9 | O=C(NCCNCCN1C(=O)c2cccc3cc([N+](=O)[O-])cc(c23)C1=O)c1cc(C(=O)N2CCOCC2)cc(N2C(=O)c3cccc4cc([N+](=O)[O-])cc(c34)C2=O)c1 [Example 48, 1-morpholinocarbonyl-3-(3-nitro-1,8-naphthalimido)-5-[N-[2-[[2-(3-nitro-1,8-naphthalimido)ethyl]amino]ethyl]carbamoyl]benzene hydrochloride] | 0.052 | 
10 | CN1CCN(C(=O)c2cc(C(=O)NCCNCCN3C(=O)c4cccc5cc([N+](=O)[O-])cc(c45)C3=O)cc(N3C(=O)c4cccc5cc([N+](=O)[O-])cc(c45)C3=O)c2)CC1 [Example 49, 1-(4-methylpiperazino)carbonyl-3-(3-nitro-1,8-naphthalimido)-5-[N-[2-[[2-(3-nitro-1,8-naphthalimido)ethyl]amino]ethyl]carbamoyl]benzene hydrochloride] | 0.035 | 
11 | CN1CCN(C(=O)c2cc(C(=O)NCCNCCN3C(=O)c4cccc5cc([N+](=O)[O-])cc(c45)C3=O)cc(N3C(=O)c4cccc5cccc(c45)C3=O)c2)CC1 [Example 50, 1-(4-methylpiperazino)carbonyl-3-(1,8-naphthalimido)-5-[N-[2-[[2-(3-nitro-1,8-naphthalimido)ethyl]amino]ethyl]carbamoyl]benzene hydrochloride] | 0.022 | 
12 | CN1CCN(C(=O)c2cc(C(=O)NCCNCCN3C(=O)c4cccc5cccc(c45)C3=O)cc(N3C(=O)c4cccc5cccc(c45)C3=O)c2)CC1 [Example 51, 1-(4-methylpiperazino)carbonyl-3-(1,8-naphthalimido)-5-[N-[2-[[2-(1,8-naphthalimido)ethyl]amino]ethyl]carbamoyl]benzene hydrochloride] | 0.025 | 
13 | CCN1CCN(C(=O)c2cc(C(=O)NCCNCCN3C(=O)c4cccc5cccc(c45)C3=O)cc(N3C(=O)c4cccc5cc([N+](=O)[O-])cc(c45)C3=O)c2)CC1 [Example 53, 1-(4-ethylpiperazino)carbonyl-3-[N-[2-[[2-(1,8-naphthalimido)ethyl]amino]ethyl]carbamoyl]-5-(3-nitro-1,8-naphthalimido)benzene hydrochloride] | 0.013 | 
14 | O=C(NCCNCCN1C(=O)c2cccc3cc([N+](=O)[O-])cc(c23)C1=O)c1cc(C(=O)N2CCC(N3CCCCC3)CC2)cc(N2C(=O)c3cccc4cc([N+](=O)[O-])cc(c34)C2=O)c1 [Example 55, 1-(3-nitro-1,8-naphthalimido)-3-[N-[2-[[2-(3-nitro-1,8-naphthalimido)ethyl]amino]ethyl]carbamoyl]-5-(4-piperidinopiperidino)carbonylbenzene hydrochloride] | 0.11 | 
15 | CN1CCN(C(=O)c2cc(C(=O)NCCCNCCN3C(=O)c4cccc5cc([N+](=O)[O-])cc(c45)C3=O)cc(N3C(=O)c4cccc5cc([N+](=O)[O-])cc(c45)C3=O)c2)CC1 [Example 56 (A), 1-(4-methylpiperazino)carbonyl-3-(3-nitro-1,8-naphthalimido)-5-[N-[3-[[2-(3-nitro-1,8-naphthalimido)ethyl]amino]propyl]carbamoyl]benzene hydrochloride] | 0.039 | 
16 | CN1CCN(C(=O)c2cc(C(=O)NCCNCCCN3C(=O)c4cccc5cc([N+](=O)[O-])cc(c45)C3=O)cc(N3C(=O)c4cccc5cc([N+](=O)[O-])cc(c45)C3=O)c2)CC1 [Example 56 (B), 1-(4-methylpiperazino)carbonyl-3-(3-nitro-1,8-naphthalimido)-5-[N-[2-[[3-(3-nitro-1,8-naphthalimido)propyl]amino]ethyl]carbamoyl]benzene hydrochloride] | 0.12 | 
